Test results reported in patent publication US20160263005A1, “TOPICAL COMPOSITIONS AND METHODS FOR SKIN LIGHTENING” (AVON PRODUCTS, INC., priority 2014, published 2016).

Tested on: Human epidermal melanocytes from dark-pigmented skin
Assay: Melanin content in human epidermal melanocytes after 8 days of incubation (absorbance at 405 nm)
Assay type: cell-based
Settings: for % Pigmentation (percent change of melanin absorbance relative to vehicle control): 8 days of incubation; for Effect on pigmentation, in words: at the concentrations of Table 1
Experimental: The Compound of Formula (II) was examined for its ability to reduce pigmentation in vitro in human melanocytes. Human epidermal melanocytes from dark-pigmented skin were seeded in 6-well dishes and grown using commercially available Medium 254, a sterile, liquid medium prepared with 200 μM calcium chloride for the culture of human epidermal melanocytes, supplemented with 1% Penicillin/Streptomycin and 1% Human Melanocyte Growth Supplement. Corresponding controls were maintained without histamine, Diphenylhydramine HCl and Compound II. Four replicates were tested for each combination. After 8 days of incubation, melanin was collected and processed by washing the wells with 1× phosphate-buffered saline (PBS), followed by addition of 200 μL of 2M NaOH to three of the four replicates, which are then scraped, pooled and boiled at 80° C. for an hour. Melanin absorption was then measured at 405 nm using a spectrophotometer.
A larger (positive or negative) percent change indicates a larger increase or reduction in melanin.

SMILES | % Pigmentation (percent change of melanin absorbance relative to vehicle control) (5 μM) [%] | Effect on pigmentation, in words | % Pigmentation (percent change of melanin absorbance relative to vehicle control) (0.0001%) [%] | % Pigmentation (percent change of melanin absorbance relative to vehicle control) (0.001%) [%]
NCCc1c[nH]cn1 [Histamine, reference compound] | 58.75 | significant increase in pigmentation | – | –
NC(=O)COc1ccc(C(=O)NCc2ccc(CN3CCCCC3)cc2)cc1 [Compound (II)] | – | effective to reduce pigmentation | −28.30 | −75.25
